In publication PMC7367207 (2020):

Key:
[1] = test system: crystallized SAM/SAH riboswitch (RNA1-26 + RNA2-9) (RNA, riboswitch, 5-bromocytidine at 4 of strand 1) GGUCACAACGGCUUCCUGGCGUGACC/AUUGGAGCA; test: X-ray crystallography; settings: crystal
[2] = test system: SAM/SAH riboswitch G44U (RNA, riboswitch) UACCUGUCACAACGGCUUCCUGGCGUGACGAGGUGACCUCAUUGGAGCAA; test: ITC; settings: 100 mM K+, 10 mM Mg2+; 40 mM HEPES-K pH 7.0, 298 K
[3] = test system: smFRET SAM/SAH riboswitch with 3' DNA extension on anchor DNA (DNA:RNA, riboswitch, 3' 18 nt of strand 1 and all of strand 2 are DNA) GAUACCUGUCACAACGGCUUCCUGGCGUGACGAGGUGACCUCAGUGGAGCAAACCGCTGCCGTCGCTCCG/CGGAGCGACGGCAGCGGT; test: single-molecule FRET, high-FRET fraction; settings: 100 mM K+, 2 mM Mg2+; 40 mM HEPES pH 7.5, surface-immobilised RNA, two-state isotherm
[4] = test system: G46N7CH-modified SAM/SAH riboswitch (RNA, riboswitch, 7-deazaguanosine (N7 to CH) at 44 (paper position 46)) UACCUGUCACAACGGCUUCCUGGCGUGACGAGGUGACCUCAGUGGAGCAA; test: ITC; settings: 100 mM K+, 10 mM Mg2+; 40 mM HEPES pH 7.0, 298 K; 40 µM RNA, 1 mM ligand stock (legend; methods: 500 µM)
[5] = test system: G44O2'H-modified SAM/SAH riboswitch (RNA, riboswitch, 2'-deoxyguanosine at 42 (paper position 44)) UACCUGUCACAACGGCUUCCUGGCGUGACGAGGUGACCUCAGUGGAGCAA; test: ITC; settings: 100 mM K+, 10 mM Mg2+; 40 mM HEPES pH 7.0, 298 K; 40 µM RNA, 1 mM ligand stock (legend; methods: 500 µM)
[6] = test system: U23C-modified SAM/SAH riboswitch (RNA, riboswitch) UACCUGUCACAACGGCUUCCCGGCGUGACGAGGUGACCUCAGUGGAGCAA; test: ITC; settings: 100 mM K+, 10 mM Mg2+; 40 mM HEPES pH 7.0, 298 K; 40 µM RNA, 1 mM ligand stock (legend; methods: 500 µM)
[7] = test system: U23isoC-modified SAM/SAH riboswitch (RNA, riboswitch, isocytidine at 21 (paper position 23, replaces U)) UACCUGUCACAACGGCUUCCUGGCGUGACGAGGUGACCUCAGUGGAGCAA; test: ITC; settings: 100 mM K+, 10 mM Mg2+; 40 mM HEPES pH 7.0, 298 K; 40 µM RNA, 1 mM ligand stock (legend; methods: 500 µM)
[8] = test system: SK209-50 SAM/SAH riboswitch (wt) (RNA, riboswitch) UACCUGUCACAACGGCUUCCUGGCGUGACGAGGUGACCUCAGUGGAGCAA; test: ITC; settings: 100 mM K+, 10 mM Mg2+; 40 mM HEPES-K pH 7.0, 298 K

| Kd [3] | Kd [8] | binding [1] | SMILES | further results |
| --- | --- | --- | --- | --- |
|  |  |  | CSC[C@H]1O[C@@H](n2cnc3c(N)ncnc32)[C@H](O)[C@@H]1O | binding ([1]; PDB title says AMP, ligand record MTA): yes |
| 10 µM | 19 ± 2 µM |  | C[S+](CC[C@H](N)C(=O)O)C[C@H]1O[C@@H](n2cnc3c(N)ncnc32)[C@H](O)[C@@H]1O (stereo partly shown) | Kd [2]: 13 ± 3 µM; binding [4]: no; binding [5]: weak; binding [6]: no; binding [7]: no; binding ([1]; also 6YMM in space group P312): yes |
|  | 12 ± 1 µM | yes | NCCCSC[C@H]1O[C@@H](n2cnc3c(N)ncnc32)[C@H](O)[C@@H]1O |  |
|  |  | yes | Nc1ncnc2c1ncn2[C@@H]1O[C@H](CO)[C@@H](O)[C@H]1O |  |
|  |  | yes | Nc1ncnc2c1ncn2[C@@H]1O[C@H](COP(=O)(O)O)[C@@H](O)[C@H]1O |  |
| 6 µM | 20 ± 2 µM |  | Nc1ncnc2c1ncn2[C@@H]1O[C@H](CSCC[C@H](N)C(=O)O)[C@@H](O)[C@H]1O | binding ([1]; 1.7 Å, second SAH only at lattice contact): yes |
